The conditions of assay [1]: which enantiomer is active; cited from earlier work.
For assay [2], the system named is GABA-T. The conditions noted are these: known to elevate brain levels of GABA; cited from earlier work.
In assay [3] the target is penicillin acylase (Escherichia coli, UniProt P06875). The experiment in a line: penicillin acylase-catalyzed hydrolysis of N-phenylacetyl derivatives. The assay is classed as biochemical, E.coli. The note with it: for E: E values calculated from the yields and the ee's of the (R)-enantiomers; for Reaction rate: [S] = 50 mm, pH 7.8, 25° C. The text has this:
Here we report a simple procedure for the preparation of the enantiomers of γ-ethynyl GABA, γ-allenyl GABA, and γ-vinyl GABA by penicillin acylase-catalyzed hydrolysis of the corresponding N-phenylacetyl derivatives. Penicillin acylase (PA) from E.coli is used in industry for the preparation of 6-aminopenicillanic acid and semisynthetic β-lactam antibiotics (V. K. Svedas et al., Enzyme Microb. Technol., 2, 138 (1980)). PA is highly specific to phenylacetyl group and catalyzes its cleavage not only from penicillins, but also from amides, peptides, and esters (M. Cole, Biochem J., 115, 733 (1969); Ibid, 741; and, A. Czentirmai, Acta Microbiol. Acad. Sci. Hung., 12, 395 (1965/1966). The structure of the leaving group of the substrates hardly affects the rate constants of the hydrolytic reactions (M. Cole, Nature, 203, 519 (1964), and A. L. Margolin et al., Biochim. Biophys. Acta, 616, 283 (1980)). The enantioselectivity of PA was exploited in the preparation of amino acids (D. Rossi et al., Experientia, 33, 1557 (1977) and Ibid, 41, 35 (1985)), aminoalkylphosphonic acids (V. A. Solodenko et al., Tetrahedron, 47, 3989 (1991)), esters and alcohols (C. Fuganti et al., Tetrahedron Letters, 44, 2575 (1988), and H. Waldman, 30, 3057 (1989)), although the hydrolysis of an ester bond normally results in products with modest optical purity.
In a typical experiment, 0.7 g of penicillin acylase immobilized on Eupergit C, was suspended in a solution of (N-phenylacetyl)-vinyl GABA (1.0 g; 4 mmol) in 35 ml 0.1 M phosphate buffer, pH 7.8. The mixture was stirred at room temperature (r.t.) for 5 hours. Then the solution was adjusted to pH 2 and the remaining substrate was extracted with CH2 Cl2 to give (S)-(N-phenylacetyl)-vinyl GABA (organic layer) and (R)-γ-vinyl GABA (aqueous). Since the chemical deacylation of (S)-(N-phenylacetyl)-vinyl GABA under acid conditions results in the formation of byproducts the same enzyme was used for the deacylation of (S)-(N-phenylacetyl)-vinyl GABA. To achieve an effective hydrolysis, a larger amount of Eupergit-PA (1.5 g), higher reaction temperature (45° C.), and longer reaction time (2 days) were used. When the reaction was complete (HPLC) the Eupergit-PA was filtered off and phenylacetic acid was extracted with CH2 Cl2 from acidic solution (pH 2). The aqueous solution of both (R)- and (S)-γ-vinyl GABA were subjected to ion-exchange chromatography (Dowex 1×2- 100 (OH-)) followed by lyophilization. The enamtiomers of γ-ethynyl GABA and γ-allenyl GABA were prepared by the same procedure (Table 1).
^b [S] = 50 mm; pH 7.8:25° C.
^f The E values were calculated from the yields and the ee's of the
(R)enantiomers (C. S. Chen, et al., J. Am. Chem. Soc., 104, 7294 (1982)).

Assay [4] deals with experimentally-induced seizures. The note with it: compared with (S)-counterpart or racemic compound; cited from earlier work.

penicillin acylase, sequence (P06875 290-846): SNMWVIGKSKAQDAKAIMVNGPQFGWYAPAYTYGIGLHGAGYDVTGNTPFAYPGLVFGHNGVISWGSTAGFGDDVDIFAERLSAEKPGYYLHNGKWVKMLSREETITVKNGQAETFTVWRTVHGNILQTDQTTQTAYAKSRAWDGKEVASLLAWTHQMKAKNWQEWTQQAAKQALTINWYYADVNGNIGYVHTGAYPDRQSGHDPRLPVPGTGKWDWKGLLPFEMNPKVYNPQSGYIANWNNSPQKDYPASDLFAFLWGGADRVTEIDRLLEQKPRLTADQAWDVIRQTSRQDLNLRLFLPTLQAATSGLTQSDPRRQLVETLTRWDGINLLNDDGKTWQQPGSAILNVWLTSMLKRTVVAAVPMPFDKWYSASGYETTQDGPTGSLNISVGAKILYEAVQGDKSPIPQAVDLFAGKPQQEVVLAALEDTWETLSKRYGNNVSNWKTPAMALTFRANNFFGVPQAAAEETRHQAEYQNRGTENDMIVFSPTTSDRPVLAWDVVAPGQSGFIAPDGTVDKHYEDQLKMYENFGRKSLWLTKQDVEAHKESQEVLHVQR
penicillin acylase, sequence (P06875 27-235): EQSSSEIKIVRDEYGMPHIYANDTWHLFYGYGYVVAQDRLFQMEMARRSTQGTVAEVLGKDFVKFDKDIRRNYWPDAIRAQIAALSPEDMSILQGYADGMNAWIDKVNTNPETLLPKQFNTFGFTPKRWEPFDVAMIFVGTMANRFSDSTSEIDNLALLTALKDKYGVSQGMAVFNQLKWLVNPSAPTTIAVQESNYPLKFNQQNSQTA

Take `C=C=CC(N)CCC(=O)O` (stereo not drawn) [γ-allenyl GABA, 4-amino-hepta-5,6-dienoic acid]: the biological activity result in assay [1] is “resides in the (S)-enantiomers”. For the same compound, the “inhibition of GABA-T” value in assay [2] is reported as “irreversible inhibitors”.

As to `C=C=CC(CCC(=O)O)NC(=O)Cc1ccccc1` (racemic) [Allenyl], in assay [3], the E is listed as 20 and the Reaction rate is 46%.

On to `C#CC(CCC(=O)O)NC(=O)Cc1ccccc1` (racemic) [Ethynyl], for which, in assay [3], the E was greater than 100 and the Reaction rate was 100%.

On to `C=CC(CCC(=O)O)NC(=O)Cc1ccccc1` (racemic) [Vinyl, (N-phenylacetyl)-vinyl GABA], for which, in assay [3], the E was 17 and the Reaction rate came out at 39%. As for `C#CC(N)CCC(=O)O` (stereo not drawn) [γ-ethynyl GABA, 4-aminohex-5-ynoic acid], the “inhibition of GABA-T” value in assay [2] is recorded as “irreversible inhibitors”. Consider `C=CC(N)CCC(=O)O` (stereo not drawn) [γ-vinyl GABA, 4-aminohex-5-enoic acid], for which the biological activity result in assay [1] is recorded as “resides in the (S)-enantiomers”. Moreover, the “inhibition of GABA-T” value in assay [2] is reported as “irreversible inhibitors”. Consider `C#C[C@H](N)CCC(=O)O` [(R)-γ-ethynyl GABA], for which the “activity as an anticonvulsant agent” value in assay [4] is recorded as “more active”.
